Like-named read-outs stand apart in the source and are kept apart here.
Tests used:
Langerin CRD = molecular target: T1, Langerin CRD (Homo sapiens, UniProt Q9UJ71); experiment: 15N HSQC NMR titration, KD determination; format: binding
T1 construct: made in house
Method: (§1) Receptor Expression and Purification
General remarks. Codon-optimized genes for the expression of Langerin and DC-SIGN in E. coli were purchased from GenScript and Life Technologies, respectively. All growth media or chemicals used for receptor expression and purification were purchased from Carl Roth if not stated otherwise. […]
Langerin and DC-SIGN carbohydrate recognition domain. Expression and purification were conducted as previously published14. Briefly, the monomeric 15N-labeled Langerin and DC-SIGN carbohydrate recognition domains (CRDs) were expressed insolubly in E. coli BL21* (DE3) (Invitrogen). Following enzymatic cell lysis, inclusion bodies were harvested and subsequently solubilized. The sample was centrifuged and the Langerin and DC-SIGN CRDs were refolded overnight via rapid dilution. Next, the sample was dialyzed overnight, centrifuged and purified via StrepTactin affinity chromatography (Iba). After an additional dialysis step overnight, the sample was centrifuged and the buffer was exchanged to 25 mM HEPES with 150 mM NaCl at pH 7.0 using 7 kDa size-exclusion desalting columns (Thermo Scientific) for 19F R2-filtered and 15N HSQC NMR experiments. The concentration of Langerin and DC -SIGN CRDs was determined via UV spectroscopy (A280, 0.1% = 3.19 and A280, 0.1% = 2.98). Purity and monodispersity of Langerin and DC - SIGN CRD samples were analyzed via SDS PAGE and DLS. […]
(§2) KI determination. KI values were determined as previously published for Langerin3. Briefly, titration experiments were conducted at a concentration of 0.1 mM of reporter ligand 24 at five competitor concentrations [I]T. Samples were prepared via serial dilution. For the acids GlcNS, GlcNAc-6-OS and GlcNS-6-OS the pH values were monitored and adjusted to 7.8 if necessary.
(§3) General remarks. 15N HSQC NMR experiments were conducted on an Ascend 700 MHz spectrometer (Bruker)16. Spectra were processed in NMRPipe17. Data analysis was performed using CCPN Analysis, MatLab and OriginPro15, 18-19. Experiments with the Langerin CRD were performed at a receptor concentration of 100 μM in 25 mM HEPES with 10% D 2O, 150 mM NaCl and 5 mM CaCl2 at pH 7.8 and 25° C. DSS-d6 served as an internal reference at a concentration of 100 μM. Spectra were referenced via the internal spectrometer reference. Spectra were acquired with 128 increments and 32 scans per increments for 150 μl samples in 3 mm sample tubes. The relaxation delay d1 was set to 1.4 s and the acquisition time tacq was set to 100 ms. The W5 Watergate pulse sequence was used for solvent suppression20. The used resonance assignment for the Langerin CRD has been published […]
(§4) KD determination. KD values were determined in titration experiments at six ligand concentrations [L]T. Samples were prepared via serial dilution. Chemical shift perturbations CSPs for Langerin CRD resonances in the fast or fast-to-intermediate exchange regime observed upon titration with ligand were calculated via Equation 121.
A standard deviation σ of 0.02 ppm was previously determined for the measurement of chemical shifts in 15N HSQC NMR experiments with the Langerin CRD1. Accordingly, only assigned resonances that […]
for the determination of KD values via Equation 2 in a global two parameter fit21. Standard errors were derived directly from the fitting procedures.
Δv0.5 larger than 10 Hz upon titration in either the 1H or the 15N dimension were not considered for the determination of KD values. CSPmax represents the CSP value observed upon saturation of the binding […]

[1] = molecular target: T2, Langerin extracellular domain (ECD) (Homo sapiens, UniProt Q9UJ71); experiment: 19F R2-filtered NMR reporter displacement assay with Langerin; format: binding; conditions: for Ki: 19F R2-filtered NMR, 0.1 mM reporter ligand 24, pH 7.8, 25 °C
T2 construct: the trimeric Langerin extracellular domain (ECD) was expressed insolubly in E; made in house
T2 sequence (Q9UJ71 65-328 limits assumed): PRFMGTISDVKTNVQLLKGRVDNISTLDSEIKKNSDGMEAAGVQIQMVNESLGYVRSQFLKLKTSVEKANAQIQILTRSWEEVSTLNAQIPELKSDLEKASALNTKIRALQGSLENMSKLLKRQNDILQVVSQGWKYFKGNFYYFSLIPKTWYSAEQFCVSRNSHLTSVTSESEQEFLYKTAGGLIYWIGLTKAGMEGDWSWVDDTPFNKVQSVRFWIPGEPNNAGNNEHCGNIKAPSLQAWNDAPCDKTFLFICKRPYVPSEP
Method: as §1
General remarks. Codon-optimized genes for the expression of Langerin and DC-SIGN in E. coli were purchased from GenScript and Life Technologies, respectively. All growth media or chemicals used for receptor expression and purification were purchased from Carl Roth if not stated otherwise.
Langerin extracellular domain. Expression and purification were conducted as previously published14. Briefly, the trimeric Langerin extracellular domain (ECD) was expressed insolubly in E. coli BL21* (DE3) (Invitrogen). Following enzymatic cell lysis, inclusion bodies were harvested and subsequently solubilized. The sample was centrifuged and the Langerin ECD was refolded overnight via rapid dilution. Next, the sample was dialyzed overnight, centrifuged and purified via mannan-agarose affinity chromatography (Sigma Aldrich). For 19F R2-filtered NMR and lipid-enzyme-linked lectin assay (Lipid-ELLA) experiments, the buffer was exchanged to 25 mM Tris with 150 mM NaCl and 5 mM CaCl2 at pH 7.8 using 7 kDa size-exclusion desalting columns (Thermo Scientific). For […]
D2O, 150 mM NaCl and 5 mM CaCl2 at pH 7. The concentration of Langerin ECD was determined via UV spectroscopy (A280, 0.1% = 2.45). Purity and monodispersity of Langerin ECD samples were analyzed via SDS PAGE and DLS. […]
General remarks. 19F R2-filtered NMR experiments were conducted on a PremiumCompact 600 MHz spectrometer (Agilent). Spectra were processed in MestReNova and data analysis was performed with OriginPro 13, 15. Experiments with the Langerin ECD were performed at a receptor concentration of 50 μM in 25 mM Tris with 10% D2O, 150 mM NaCl and 5 mM CaCl2 at pH 7.8 and 25° C. […]
10% D2O, 150 mM NaCl and 5 mM CaCl2 at pH 7.0 and 25°C. TFA served as an internal reference at a concentration of 50 μM. Apparent relaxation rates R2,obs for the reporter ligand were determined using the CPMG pulse sequence as previously published3-5. […]
as §2, §3, §4

[2] = CSPs of fast-exchanging resonances, read-out: KD, Langerin (KD,fast)
[3] = from integrals V of resonances in slow exchange, read-out: KD, Langerin (KD,slow)
[4] = calculated utilizing the KI value determined for 21

T1 sequence (Q9UJ71 202-320 limits assumed): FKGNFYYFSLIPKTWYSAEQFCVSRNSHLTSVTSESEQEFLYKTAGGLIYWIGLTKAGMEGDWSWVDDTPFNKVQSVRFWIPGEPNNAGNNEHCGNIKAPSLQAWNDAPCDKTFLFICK

SMILES | Kd (Langerin CRD; [2]) | Kd (Langerin CRD; [3]) | Ki [1] | Relative potency, Langerin [1, 4] | Relative potency, Langerin ([1]; calculated utilizing the KI value determined for GlcNAc) | affinity increase over GlcNAc ([1]; from KI values, Langerin) | affinity increase over Man-based reference molecule 21 ([1]; from KI values, Langerin, b47 words it as over natural glycans)
Cc1ccc(S(=O)(=O)N[C@H]2C(O)O[C@H](CO)[C@@H](O)[C@@H]2O)cc1 (some centres unmarked) [compound 2] | 460 ± 40 µM | 500 ± 200 µM | 320 ± 50 µM | 31 | 13 | 13 fold | –
CC(=O)NCCO[C@@H]1O[C@H](CO)[C@@H](O)[C@H](O)[C@H]1NS(=O)(=O)c1ccc(C)cc1 [compound 16] | 230 ± 70 µM | 300 ± 100 µM | 240 ± 30 µM | 42 | – | – | 42 fold
CC(=O)NCCO[C@H]1O[C@H](CO)[C@@H](O)[C@H](O)[C@@H]1O [compound 21] | 12000 ± 1000 µM | – | 10000 ± 1000 µM | 1.0 | – | – | –

Reference: publication PMC6535779, “A Specific, Glycomimetic Langerin Ligand for Human Langerhans Cell Targeting” (ACS Central Science, 2019)
